PMC11422593, “Structural and biochemical analysis of highly similar HLA-B allotypes differentially associated with type 1 diabetes” (The Journal of Biological Chemistry, 2024)
Read-outs that look alike come from different tables or passages of the source. No end group written: not given here.

Experiments:
HLA-B∗39:01 = biological target: T1, HLA-B∗39:01 (Homo sapiens, UniProt P01889, A182T/A93T/A95T/C349S/D138N/D201E/E176V/E187T/E204Q/K202T/Q94N/R155S/R180L/S121R/Y140F/Y91C); test: biochemical; format: binding
T1 construct: made in house

HLA-B∗38:01 [1] = biological target: T2, HLA-B∗38:01 (Homo sapiens, UniProt P01889, A182T/A93T/A95T/C349S/D138N/D201E/D98Y/E176V/E187T/E204Q/G107R/K202T/L105A/N104I/Q94N/R106L/R155S/R180L/S101N/S121R/Y140F/Y91C); test: biochemical
HLA-B∗39:06 [2] = biological target: T3, HLA-B∗39:06 (Homo sapiens, UniProt P01889, A182T/A93T/A95T/C349S/D138N/D201E/E176V/E187T/E204Q/K202T/L119W/Q94N/R155S/R180L/S121T/Y140F/Y91C); test: biochemical; format: binding
HLA-B∗39:06 [3] = biological target: T3, HLA-B∗39:06; settings: cited from earlier work
Procedure: We previously reported the sequences of peptides endogenously bound to and eluted from HLA-B∗39:06 molecules purified from the human lymphoblastoid cell line C1R/HLA-B∗39:06 ([26]). […] Our strategy was based on the prior seminal observations of Ploegh et al. ([27]) that the incubation of cells at 26 °C allows for empty class I MHC molecules to reach the cell surface, and that the MHC can be stabilized if a binding peptide is also included. […] Assays to quantitatively measure peptide binding to purified B∗39:06 and B∗39:01 molecules were based on the inhibition of binding of a high-affinity radiolabeled peptide and performed as described ([26]).

[4] = biological target: HLA-B∗39:01 (purified MHC molecules) (human); test: radioligand binding
[5] = biological target: HLA-B∗39:06 (purified MHC molecules) (human); test: radioligand binding
[6] = biological target: HLA-B∗38:01 (purified MHC molecules) (human); test: radioligand binding
HLA-B∗38:01 [7] = biological target: T2, HLA-B∗38:01; parameters: made in house; settings: read-out: IC50 of the probe peptide (HLA-B∗38:01 assay); cited from earlier work
[8] = biological target: HLA-B∗38:01 (purified MHC molecules) (human); test: radioligand binding; cell-free competitive assay as for B∗39:06, with purified HLA-B∗38:01 and radiolabelled … as the probe

Molecule | IC50 (HLA-B∗39:01) [nM] | IC50 (HLA-B∗38:01 [1]) [nM] | IC50 (HLA-B∗39:06 [2]) [nM] | IC50 [4] [nM] | IC50 [5] [nM] | also measured
SHLVEALYL | 5250 | 10 | 35600 |  |  | 
DHAVVVGV |  |  |  |  |  | rank of binding to HLA-B∗39:06 among the candidate endogenous ligands (HLA-B∗39:06 [3]; cell-free competitive assay, purified HLA-B∗39:06 and high-affinity radiolabeled ligand, also data not shown): by far the weakest HLA-B∗39:06 binder among the candidates
NRVMLPKA (NLRP2, position 320, 8mer) (peptide) |  |  |  | 85 | 41 | 
MRLLPLLA | 62 | 44500 | 41 |  |  | 
YHFLQIPT (human G6Pase 2, position 307) (peptide) |  |  |  | 660 | 151 | IC50 [6]: 9750 nM
MRLLPLLAL [MRLLPLLAL] | 14 | 850 | 677 |  |  | 
FRLLCALTSL | 290 | 2760 | 7.4 |  |  | 
… (DDX3X, position 2) (peptide) |  |  |  | 11 | 696 | IC50 [6]: 321 nM
YHIPGDTLF |  |  |  |  |  | IC50 (HLA-B∗38:01 [7]): 1.4 nM
SASIPLTVVA | 30900 | > 50000 | 310 |  |  | 
NRVMLPKA | 85 |  | 41 |  |  | 
NRVMLPKAA | 35 | > 50000 | 14 |  |  | 
CC(C)C[C@H](NC(=O)[C@H](C)NC(=O)[C@H](CC(N)=O)NC(=O)[C@H](CCC(=O)O)NC(=O)[C@@H](NC(=O)[C@H](C)NC(=O)[C@@H](NC(=O)[C@H](Cc1c[nH]cn1)NC(=O)[C@@H](N)CO)C(C)C)C(C)C)C(=O)O [SHVAVENAL, reference compound] | 11 | 321 | 696 |  |  | 
… (Variola virus RNA helicase 346–354) (peptide) |  |  |  |  |  | IC50 [6]: 1.4 nM
WMRLLPLLA | 865 | > 50000 | 155 |  |  | 
FLFLFAVG | 17900 | > 50000 | 405 |  |  | 
MRLLPLLA (human insulin, position 5, 8mer) (peptide) |  |  |  | 62 | 41 | IC50 [6]: 44500 nM
TNLFLFLFAV | 3950 | 6690 | 354 |  |  | 
… (human insulin, position 5, 9mer) (peptide) |  |  |  | 14 | 677 | IC50 [6]: 850 nM
FRYQGHVGA [Homo sapiens proteasome subunit 127–135, reference compound] |  |  |  |  |  | IC50 (HLA-B∗39:06 [3]; unlabeled version of the radiolabeled probe, read-out: IC50 of the probe peptide for B∗39:06): 24 nM
CC(C)C[C@H](NC(=O)[C@H](CS)NC(=O)[C@@H]1CCCN1C(=O)[C@H](CO)NC(=O)[C@H](CO)NC(=O)[C@H](Cc1c[nH]cn1)NC(=O)[C@@H](N)CC(N)=O)C(=O)N[C@@H](CCC(=O)O)C(=O)N[C@@H](CCC(N)=O)C(=O)N[C@@H](Cc1ccccc1)C(=O)O | 25700 |  | > 50000 |  |  | 
YHFLQIPT | 660 | 9750 | 151 |  |  | 
THFPHQVIL | 73 | 142 | 2600 |  |  | 
NRVMLPKAA [… (NLRP2 320 to 328), free peptide] |  |  |  | 35 | 14 | IC50 [8]: > 50000 nM
SASIPLTVVA [… (human G6Pase 2, position 328)] |  |  |  | 30900 | 310 | IC50 [8]: > 50000 nM
WMRLLPLLA [… (human insulin, position 4)] |  |  |  | 865 | 155 | IC50 [8]: > 50000 nM
FRYQGHVGA (not fully specified) [… (Homo sapiens proteasome subunit 127–135)] |  |  |  |  | 24 | 
FLFLFAVG [FLFLFAVG (human G6Pase 2, position 213)] |  |  |  | 17900 | 405 | IC50 [8]: > 50000 nM
